The source of these data is patent US10183024B2, “Crystalline forms of ibrutinib” (Apotex Inc., priority 2016, dated 2019).

The conditions of series [1]: cited from earlier work.
The nature of series [2]: PXRD study of crystal form stability on storage in stability chambers. It counts as physicochemical. As to the method:
Ibrutinib Form APO-I can be characterized by a PXRD diffractogram comprising, among other peaks, characteristic peaks, expressed in degrees 2θ (±0.2°), at 5.1°, 7.6° and 12.5°. Preferably, the PXRD diffractogram further comprises at least three peaks, expressed in degrees 2θ (±0.2°), selected from the group consisting of: 10.1°, 11.1°, 14.2°, 15.4°, 16.3°, 17.3° and 18.7°. More preferably, the PXRD diffractogram further comprises peaks, expressed in degrees 2θ (±0.2°), at 10.1°, 11.1°, 14.2°, 15.4°, 16.3°, 17.3° and 18.7°. PXRD studies of capped and uncapped samples of Ibrutinib Form APO-I have shown that this crystal form is stable following storage in stability chambers maintained at 27° C./60% RH for at least 31 days and 40° C./75% RH for at least 21 days.
Ibrutinib Form APO-II can be characterized by a PXRD diffractogram comprising, among other peaks, characteristic peaks, expressed in degrees 2θ (±0.2°), at 6.4°, 10.1° and 12.8°. Preferably, the PXRD diffractogram further comprises at least three peaks, expressed in degrees 2θ (±0.2°), selected from the group consisting of: 13.8°, 17.6°, 18.4°, 19.4°, 20.4°, 21.0°, 21.7°, 23.2°, 24.1° and 24.9°. More preferably, the PXRD diffractogram further comprises peaks, expressed in degrees 2θ (±0.2°), at 13.8°, 17.6°, 18.4°, 19.4°, 20.4°, 21.0°, 21.7°, 23.2°, 24.1° and 24.9°. PXRD studies of capped and uncapped samples of Ibrutinib Form APO-II have shown that this crystal form is stable following storage in stability chambers maintained at 27° C./60% RH and 40° C./75% RH for at least 25 days.
Ibrutinib Form APO-IV can be characterized by a PXRD diffractogram comprising, among other peaks, characteristic peaks, expressed in degrees 2θ (±0.2°), at 6.4°, 10.2° and 12.9°. Preferably, the PXRD diffractogram further comprises at least three peaks, expressed in degrees 2θ (±0.2°), selected from the group consisting of: 13.9°, 17.7°, 18.4°, 19.4°, 20.5°, 21.3°, 21.8°, 23.2°, 24.2° and 24.9°. More preferably, the PXRD diffractogram further comprises peaks, expressed in degrees 2θ (±0.2°), at 13.9°, 17.7°, 18.4°, 19.4°, 20.5°, 21.3°, 21.8°, 23.2°, 24.2° and 24.9°. PXRD studies of uncapped samples of Ibrutinib Form APO-IV have shown that this crystal form is stable following storage in a stability chambers maintained at 40° C./75% RH for at least 11 months.
Data were acquired on a PANanalytical X-Pert Pro MPD diffractometer with fixed divergence slits and an X'Celerator RTMS detector. The diffractometer was configured in Bragg-Brentano geometry; data was collected over a 2-theta range of 3° to 40° using CuKα radiation at a power of 40 mA and 45 kV. CuKβ radiation was removed using a divergent beam nickel filter. A step size of 0.017° was used. Samples were rotated to reduce preferred orientation effects. Samples were lightly ground prior to analysis.

Where [3] appears, read: 27° C./60% RH, capped and uncapped samples.
The mark [4] stands for this setting: 40° C./75% RH, capped and uncapped samples.

Consider `C=CC(=O)N1CCCC(n2nc(-c3ccc(Oc4ccccc4)cc3)c3c(N)ncnc32)C1` (stereo not shown) [Form A], for which, in series [1] (drug substance in IMBRUVICA, per AusPAR), the solubility entry is on record as “pH dependent solubility”.
Take `C=CC(=O)N1CCCC(n2nc(-c3ccc(Oc4ccccc4)cc3)c3c(N)ncnc32)C1` (stereo not shown) [Form APO-I]: the “crystal form stable following storage (PXRD)” value in series [2] (setting [3]) is “at least 31 days”; in series [2] (setting [4]) it was “at least 21 days”.
Turning to `C=CC(=O)N1CCCC(n2nc(-c3ccc(Oc4ccccc4)cc3)c3c(N)ncnc32)C1` (stereo not shown) [Form B], in series [1] (reported for other anhydrous forms), the aqueous solubility result was “low aqueous solubility”.
For the molecule `C=CC(=O)N1CCCC(n2nc(-c3ccc(Oc4ccccc4)cc3)c3c(N)ncnc32)C1` (stereo not shown) [Form APO-IV], the “crystal form stable following storage (PXRD)” value in series [2] (40° C./75% RH, uncapped samples) is on record as “at least 11 months”.
As to `C=CC(=O)N1CCCC(n2nc(-c3ccc(Oc4ccccc4)cc3)c3c(N)ncnc32)C1` (stereo not shown) [Form APO-II], the “crystal form stable following storage (PXRD)” value in series [2] (setting [3]) and in series [2] (setting [4]) was “at least 25 days” throughout.
